Molecular target: T1, Microsomal triglyceride transfer protein large subunit (Homo sapiens) (UniProt P55157)
T1 sequence (whole entry): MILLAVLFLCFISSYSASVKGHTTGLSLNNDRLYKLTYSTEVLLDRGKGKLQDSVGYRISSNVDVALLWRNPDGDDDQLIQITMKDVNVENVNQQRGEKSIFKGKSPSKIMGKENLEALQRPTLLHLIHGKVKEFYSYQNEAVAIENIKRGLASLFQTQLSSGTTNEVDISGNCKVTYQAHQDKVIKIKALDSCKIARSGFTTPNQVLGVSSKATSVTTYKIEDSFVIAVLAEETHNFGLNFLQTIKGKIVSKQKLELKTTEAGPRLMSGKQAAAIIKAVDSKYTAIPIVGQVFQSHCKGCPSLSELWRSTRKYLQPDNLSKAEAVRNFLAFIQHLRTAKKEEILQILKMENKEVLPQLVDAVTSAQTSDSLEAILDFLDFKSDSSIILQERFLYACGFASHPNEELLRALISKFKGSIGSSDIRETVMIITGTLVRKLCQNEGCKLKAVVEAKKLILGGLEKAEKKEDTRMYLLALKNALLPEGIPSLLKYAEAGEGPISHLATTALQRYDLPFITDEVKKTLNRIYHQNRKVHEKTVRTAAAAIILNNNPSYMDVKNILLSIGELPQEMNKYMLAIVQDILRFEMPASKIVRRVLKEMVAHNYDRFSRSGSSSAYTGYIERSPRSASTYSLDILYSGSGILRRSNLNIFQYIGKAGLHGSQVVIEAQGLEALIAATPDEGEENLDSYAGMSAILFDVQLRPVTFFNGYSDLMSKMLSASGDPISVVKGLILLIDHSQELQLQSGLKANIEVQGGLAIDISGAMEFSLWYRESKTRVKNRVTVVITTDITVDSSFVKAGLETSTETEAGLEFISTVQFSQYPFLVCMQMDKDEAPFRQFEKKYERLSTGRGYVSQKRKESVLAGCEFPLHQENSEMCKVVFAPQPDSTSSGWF
Experiment: Inhibition of intestinal MTP in rat by murine gut retention assay
Type: functional
Settings: target entry is the homologue from another species

| ED25 [mg/kg] | SMILES |
| --- | --- |
| 3 | Cc1cc(C(=O)N[C@H](C(=O)N2CCCC2)c2ccccc2)ccc1NC(=O)c1ccccc1-c1ccc(C(F)(F)F)cc1 |
| 6.93 | O=C(N[C@H](C(=O)N1CCCC1)c1ccccc1)c1ccc(NC(=O)c2ccccc2-c2ccc(C(F)(F)F)cc2)nc1 |

Reference: ChEMBL document CHEMBL1148659, “Discovery of potent and orally active MTP inhibitors as potential anti-obesity agents” (Bioorg Med Chem Lett, 2006)
